The test system of one assay is NCI-H1299. Description: Antiproliferative activity against human NCI-H1299 cells assessed as inhibition of cell growth incubated for 72 hrs by CCK-8 assay. The class given is functional, cell-based. As to conditions: NCI-H1299, 72 h.
For assay [1], the system named is SW480. Description: Antiproliferative activity against human SW480 cells assessed as inhibition of cell growth incubated for 72 hrs by CCK-8 assay. As to conditions: SW480, 72 h. Type of assay: functional, cell-based. A general note: Tetrazolium assays rely on reduction of a dye to a coloured formazan, in cell work by metabolically active cells.
A further assay concerns Staphylococcus aureus. The experiment in a line: Antibacterial activity against Staphylococcus aureus ATCC 25923 assessed as inhibition of bacterial growth incubated for 24 hrs by microtiter plate reader analysis. The class given is functional.
The next assay deals with A549. Description: Antiproliferative activity against human A549 cells assessed as inhibition of cell growth incubated for 72 hrs by CCK-8 assay. Type of assay: functional, cell-based. As to conditions: A549, 72 h.
In another assay the test system is Pseudomonas aeruginosa. The experiment in a line: Antibacterial activity against Pseudomonas aeruginosa ATCC 47085 assessed as inhibition of bacterial growth incubated for 24 hrs by microtiter plate reader analysis. Type of assay: functional.
Assay [2] has as its system Staphylococcus epidermidis. The experiment in a line: Antibacterial activity against Staphylococcus epidermidis ATCC 14990 assessed as inhibition of bacterial growth incubated for 24 hrs by microtiter plate reader analysis. The class given is functional.
The subject of a further assay is SW1990. The experiment in a line: Antiproliferative activity against human SW1990 cells assessed as inhibition of cell growth incubated for 72 hrs by CCK-8 assay. Type of assay: functional, cell-based. As to conditions: SW1990, 72 h.
Assay [3] deals with SW480. Description: Induction of apoptosis in human SW480 cells assessed as increase in annexin V/PI positive cells incubated for 24 hrs by annexin V-FITC/PI staining based flow cytometry analysis. The class given is functional, cell-based. As to conditions: dose 0-2.5 µM.
Assay [4] has as its system SW480. The experiment in a line: Inhibition of colony formation in human SW480 cells assessed as reduction in number of clonogenic cells at 0 to 2.5 uM incubated for 24 hrs followed by replacement with fresh medium and measured after 24 hrs by crystal violet staining based analysis. The class given is functional, cell-based. As to conditions: dose 0-2.5 µM.

In brackets after ≈: the same amount, converted by molar mass. Activity calls are given as the source filed them. No cut-off for these calls is given here.

As for `CC[C@@](C)(NC(=O)[C@H](C)NC(=O)[C@H](CO)NC(=O)C(C)(C)NC(C)=O)C(=O)N[C@](C)(CC)C(=O)N[C@@H](CCC(N)=O)C(=O)N[C@](C)(CC)C(=O)N[C@H](C(=O)NC(C)(C)C(=O)NCC(=O)N[C@@H](CC(C)C)C(=O)NC(C)(C)C(=O)N1CCC[C@H]1C(=O)N[C@@H](CC(C)C)C(=O)NC(C)(C)C(=O)NC(C)(C)C(=O)N[C@@H](CCC(N)=O)C(=O)N[C@H](CO)Cc1ccccc1)C(C)C`, the IC50 (commonly the concentration that gives 50% inhibition) with NCI-H1299 was determined as 3.2 µM; in the assay on SW480 [1] it was 1.1 µM; in the assay on A549, 2.6 µM; in the assay on SW1990, 1.1 µM. For the same molecule, the minimal inhibitory concentration (MIC) (in general, the lowest concentration found to suppress growth) was 23 µg/mL (≈ 12.7 µM) in the assay on Staphylococcus aureus, greater than 180 µg/mL in the assay on Pseudomonas aeruginosa and 90 µg/mL (≈ 49.7 µM) in assay [2].

Regarding `O=C(N[C@H](CO)[C@H](O)c1ccc([N+](=O)[O-])cc1)C(Cl)Cl` [CHLORAMPHENICOL], the MIC is 3.1 µg/mL (≈ 9.59 µM) with Staphylococcus aureus, greater than 180 µg/mL in the assay with Pseudomonas aeruginosa and 1.6 µg/mL (≈ 4.95 µM) in [2].

Regarding `CC[C@@](C)(NC(=O)[C@H](C)NC(=O)[C@H](C)NC(=O)C(C)(C)NC(C)=O)C(=O)N[C@](C)(CC)C(=O)N[C@@H](CCC(N)=O)C(=O)N[C@](C)(CC)C(=O)N[C@H](C(=O)NC(C)(C)C(=O)NCC(=O)N[C@@H](CC(C)C)C(=O)NC(C)(C)C(=O)N1CCC[C@H]1C(=O)N[C@@H](CC(C)C)C(=O)NC(C)(C)C(=O)NC(C)(C)C(=O)N[C@@H](CCC(N)=O)C(=O)N[C@H](CO)Cc1ccccc1)C(C)C`, the IC50 worked out at 3 µM in the assay on NCI-H1299, 1.5 µM in the assay with SW480 [1], 2.7 µM in the assay on A549 and 1.5 µM in the assay with SW1990. Further, the MIC in the assay on Staphylococcus aureus was 23 µg/mL (≈ 12.8 µM); with Pseudomonas aeruginosa, greater than 180 µg/mL; in [2], greater than 180 µg/mL.

Regarding `CC[C@@](C)(NC(=O)C(C)(C)NC(=O)[C@H](C)NC(=O)[C@H](C)NC(=O)C(C)(C)NC(C)=O)C(=O)N[C@@H](CCC(N)=O)C(=O)NC(C)(C)C(=O)N[C@H](C(=O)NC(C)(C)C(=O)NCC(=O)N[C@@H](CC(C)C)C(=O)NC(C)(C)C(=O)N1CCC[C@H]1C(=O)N[C@@H](CC(C)C)C(=O)NC(C)(C)C(=O)NC(C)(C)C(=O)N[C@@H](CCC(N)=O)C(=O)N[C@H](CO)Cc1c[nH]c2ccccc12)C(C)C`, the IC50 with NCI-H1299 came out at 3.4 µM; with SW480 [1], 0.88 µM; in the assay with A549 it was 2.5 µM; with SW1990, 1.3 µM. Also, the values for the MIC (in the assay with Staphylococcus aureus; in the assay with Pseudomonas aeruginosa; in assay [2]) were 23 µg/mL (≈ 12.7 µM), greater than 180 µg/mL and 90 µg/mL (≈ 49.9 µM), respectively.

Take `CC[C@@](C)(NC(=O)[C@H](C)NC(=O)[C@H](C)NC(=O)C(C)(C)NC(C)=O)C(=O)N[C@](C)(CC)C(=O)N[C@@H](CCC(N)=O)C(=O)NC(C)(C)C(=O)N[C@H](C(=O)NC(C)(C)C(=O)NCC(=O)N[C@@H](CC(C)C)C(=O)NC(C)(C)C(=O)N1CCC[C@H]1C(=O)N[C@@H](CC(C)C)C(=O)NC(C)(C)C(=O)NC(C)(C)C(=O)N[C@@H](CCC(N)=O)C(=O)N[C@H](CO)Cc1ccccc1)C(C)C`: the result in the assay on SW480 [3] was Active. For the same molecule, the IC50 in the assay on NCI-H1299 turned out to be 1.3 µM; with SW480 [1], 0.46 µM; in the assay on A549 it was 1.3 µM; with SW1990, 0.46 µM. In addition, the MIC is 45 µg/mL (≈ 25.3 µM) in the assay with Staphylococcus aureus, greater than 180 µg/mL in the assay on Pseudomonas aeruginosa and greater than 180 µg/mL in assay [2]. Further, the inhibition result with SW480 [4] is “Active”.

With `CC[C@@H](C)[C@H](NC(=O)[C@@](C)(CC)NC(=O)[C@H](CCC(N)=O)NC(=O)[C@@](C)(CC)NC(=O)[C@@](C)(CC)NC(=O)[C@H](C)NC(=O)[C@H](CO)NC(=O)C(C)(C)NC(C)=O)C(=O)NC(C)(C)C(=O)NCC(=O)N[C@@H](CC(C)C)C(=O)NC(C)(C)C(=O)N1CCC[C@H]1C(=O)N[C@@H](CC(C)C)C(=O)NC(C)(C)C(=O)NC(C)(C)C(=O)N[C@@H](CCC(N)=O)C(=O)N[C@H](CO)Cc1ccccc1`, the IC50 in the assay with NCI-H1299 amounted to 2.9 µM; in the assay with SW480 [1] it was 0.96 µM; in the assay on A549, 2.8 µM; with SW1990, 0.96 µM. The figures for the MIC (in the assay on Staphylococcus aureus; in the assay on Pseudomonas aeruginosa; in [2]) were 45 µg/mL (≈ 24.7 µM), greater than 180 µg/mL and greater than 180 µg/mL, respectively.

As for `CC[C@@](C)(NC(=O)[C@H](CCC(N)=O)NC(=O)[C@@](C)(CC)NC(=O)C(C)(C)NC(=O)[C@H](C)NC(=O)[C@H](C)NC(=O)C(C)(C)NC(C)=O)C(=O)N[C@H](C(=O)NC(C)(C)C(=O)NCC(=O)N[C@@H](CC(C)C)C(=O)NC(C)(C)C(=O)N1CCC[C@H]1C(=O)N[C@@H](CC(C)C)C(=O)NC(C)(C)C(=O)NC(C)(C)C(=O)N[C@@H](CCC(N)=O)C(=O)N[C@H](CO)Cc1ccccc1)C(C)C`, the IC50 in the assay on NCI-H1299 is 4 µM; with SW480 [1] it was 1.2 µM; with A549, 2.8 µM; in the assay with SW1990, 1.2 µM. In addition, the results for the MIC (with Staphylococcus aureus; in the assay with Pseudomonas aeruginosa; in assay [2]) were 23 µg/mL (≈ 12.9 µM), greater than 180 µg/mL and 90 µg/mL (≈ 50.6 µM), respectively.

On to `CC[C@@](C)(NC(=O)C(C)(C)NC(=O)[C@H](C)NC(=O)[C@H](C)NC(=O)C(C)(C)NC(C)=O)C(=O)N[C@@H](CCC(N)=O)C(=O)NC(C)(C)C(=O)N[C@H](C(=O)NC(C)(C)C(=O)NCC(=O)N[C@@H](CC(C)C)C(=O)NC(C)(C)C(=O)N1CCC[C@H]1C(=O)N[C@@H](CC(C)C)C(=O)NC(C)(C)C(=O)NC(C)(C)C(=O)N[C@@H](CCC(N)=O)C(=O)N[C@H](CO)Cc1ccccc1)C(C)C`, for which the IC50 in the assay with NCI-H1299 turned out to be 4.7 µM; in the assay with SW480 [1], 0.9 µM; in the assay with A549, 2.7 µM; in the assay with SW1990, 0.9 µM. For the same molecule, the minimum inhibitory concentration (MIC) in the assay with Staphylococcus aureus was 45 µg/mL (≈ 25.5 µM); in the assay with Pseudomonas aeruginosa, greater than 180 µg/mL; in assay [2] it was greater than 180 µg/mL.

Source of the values: ChEMBL document CHEMBL5252630, “18-Residue Peptaibols Produced by the Sponge-Derived Trichoderma sp. GXIMD 01001” (J Nat Prod, 2023).
